Tested on: inflamed ears of experimental mice
Assay: Anti-inflammatory activity on ethyl phenyl propyolate-inflamed mice ears
Assay type: in vivo
Method: The test for anti-inflammatory activity can be done on lab mice by applying ethyl phenyl propyolate on mice ears at a concentration of 1 mg per ear to induce inflammation. The fullest swollen ear can be observed 1 hour after the application, then the tested extracts and reference compound, dexamethasone, are applied onto the inflamed ears at a dose of 0.05 mg/ear. The reduction in the thickness of the ears in comparison with the control group indicates anti-inflammatory activity, as shown in Table 1.

C[C@@H]1C[C@H]2[C@@H]3CCC4=CC(=O)C=C[C@]4(C)[C@@]3(F)[C@@H](O)C[C@]2(C)[C@@]1(O)C(=O)CO [Anti-inflammatory, Dexamethasone]
Percentage reduction of inflamed ears (0 min, ethyl phenyl propyolate 1 mg per ear): 0% | Percentage reduction of inflamed ears (60 min after inducer (fullest swelling, time of application), 0.05 mg/ear): 54.253% | Percentage reduction of inflamed ears (90 min, 0.05 mg/ear topical): 42.533% | Percentage reduction of inflamed ears (120 min, 0.05 mg/ear topical): 38.752% | Percentage reduction of inflamed ears (240 min, 0.05 mg/ear topical): 25.142% | Percentage reduction of inflamed ears (360 min, 0.05 mg/ear topical): 13.422% | Percentage reduction of inflamed ears (480 min, 0.05 mg/ear topical): 11.531%

Source: patent publication US20050191267A1, “Anti-photoaging cosmeceutical composition” (priority 2004, published 2005)
